Reference: patent EP1383510B1, “BISPHOSPHONATE CONJUGATES AND METHODS OF MAKING AND USING THE SAME” (priority 2001, dated 2002)

Assays:
[1] = Binding of novel bisphosphonate conjugates on hydroxyapatite powder (UV spectra before/after treatment); settings: pH 7.0
Experimental: To estimate the binding of NBC on hydroxyapatite (the mineral component of bone) UV spectra of NBC at pH7 were recorded before and after treatment with hydroxyapatite. […] The supernatant was separated and an absorption spectrum of the supernatant was recorded.

[2] = Biodistribution in rats of vitamin B6 - bisphosphonate conjugates in complex with 99mTc; type: in vivo; settings: as complexing agent of the bone-scanning agent; general statement
Experimental: The probes were prepared with molar concentration of about 10^-3 molar at pH 6.5, with a molar ratio SnCl2 to a conjugate 1:10 and 1 m^cl/ml pertechnetate.
Male rats weighting […] were injected intravenously via the tail vein. The rats were sacrificed and dissected at selected times - 30 min., 60 min., and 120 min. The activity uptake in bone, blood, muscle, liver and spleen of each rat was measured. The results obtained indicate 40-45% of initial radioactivity injected was accumulated at bone skeleton after 60-90 min.

[3] = HPLC-analysis of hydrolytic stability of nucleotide-bisphosphonate conjugate in buffer; type: physicochemical
Experimental: (§1) HPLC-analysis of hydrolytic stability of conjugate VI, Fig. 2, in buffer and in human serum was carried out under the following conditions: column Nucleosil C-18 (30-C18), 0-4% triethylammonium acetate (0.1 M, pH6.8); 20 min, flow rate -1 ml/min. […] The stability of the conjugate was decreased in mouse/human serum as it is evidenced from data on Fig.3. However, the conjugate is stable enough to be delivered to a skeleton in intact form.

[4] = HPLC-analysis of stability of nucleotide-bisphosphonate conjugate in serum; type: in vitro ADME; settings: mouse/human serum; Fig.3
Experimental: as §1

In the case of `Cc1ncc(COP(=O)(O)O)c(CNCCC(O)(P(=O)(O)O)P(=O)(O)O)c1O` [(i), 3 - (N-[5 '-phospho] -pyridoxylamino) -1-hydroxypropyliden-1,1-bisphosphonic acid], the “% of bound compound” value [1] is reported as 100% and the “% of nonbound compound” value [1] is reported as 0%.

In the case of `Cc1ncc(CO)c(CNCCC(O)(P(=O)(O)O)P(=O)(O)O)c1O` [(ii), 3-(N-pyridoxylamino) -1-hydroxypropyliden-1,1-bisphosphonic acid], the “% of bound compound” value [1] is reported as 100%, the “% of nonbound compound” value [1] is reported as 0% and the uptake in bone [2] is reported as “high and rapid uptake in bone”.

With `Cc1ncc(COP(=O)(O)O)c(CNC(P(=O)(O)O)P(=O)(O)O)c1O` [(iii), 1 - (N-[5 '-phospho] -pyridoxylamino)-methylene-1,1-bisphosphonic acid] the “% of bound compound” value [1] was 100% and the “% of nonbound compound” value [1] was 0%.

In the case of `Cc1ncc(CO)c(CNC(P(=O)(O)O)P(=O)(O)O)c1O` [(iv), 1 -(N-pyridoxyl amino) -methylen-1, 1 -bisphosphonic acid], the “% of bound compound” value [1] is reported as 100% and the “% of nonbound compound” value [1] is reported as 0%.

In the case of `O=c1[nH]c(=O)n(COCCOCCOP(=O)(O)CP(=O)(O)O)cc1F` [II, Anhydride of 1-([2-{hydroxyethoxy}ethoxy]methylene)-5-fluorouracil and methylenediphosphonic acid], the “% of bound compound” value [1] is reported as 87,26% and the “% of nonbound compound” value [1] is reported as 12,74%.

For `O=c1[nH]c(=O)n(C2OC(COP(=O)(O)OP(=O)(O)CP(=O)(O)O)C(O)C2O)cc1F` (stereo not shown) [III, Anhydride of 5-fluorouridine-5'-monophosphoric acid and methylenediphosphonic acid], the “% of bound compound” value [1] was 70,05%.

In the case of `CC(O)(P(=O)(O)O)P(=O)(O)OP(=O)(O)OCC1OC(n2cc(F)c(=O)[nH]c2=O)C(O)C1O` (stereo not shown) [VI, Anhydride of 5-fluorouridine-5'-monophosphoric acid and 1-hydroxyethylidene-1,1-bisphosphonic acid], the “hydrolytic stability (stable for several hours)” value ([3]; buffer solution at pH 5-7, several hours) is reported as “more than 97%”, the “hydrolytic stability of the P-O-P bond” value ([3]; incubation either at pH >8.0 or at pH<3.0) is reported as “Hydrolytic cleavage of the conjugate P-O-P bond occurred” and the “stability of the conjugate in serum” value [4] is reported as “decreased”. For the same molecule, the “% of bound compound” value [1] was 69,66% and the “% of nonbound compound” value [1] was 30,34%.

With `CC(O)(P(=O)(O)O)P(=O)(O)OP(=O)(O)OCC1OC(n2ccc(=O)[nH]c2=O)C(O)C1O` (stereo not shown) [VII, Anhydride of uridine-5 '-monophosphoric acid and 1-hydroxyethylidene-1,1 diphosphonic acid] the “% of bound compound” value [1] was 88,68% and the “% of nonbound compound” value [1] was 11,32%.
